Experimental data reported in the supplement of paper PMC10307832.

How the values were obtained:
Experiment in all cases: relative viability (nuclei count vs DMSO), 5 days (fraction); higher = more cells survive
[1] = compound: Nc1nc(Nc2ccc3c(c2)CC[C@@H](N2CCCC2)CC3)nn1-c1cc2c(nn1)-c1ccccc1CCC2 [Bemcentinib] + CC(=O)c1c(C)c2cnc(Nc3ccc(N4CCNCC4)cn3)nc2n(C2CCCC2)c1=O [Palbociclib] (partner 0.5 µM)
Summary of the method: (§1)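 The day after seeding in 1536-well plates, lung cancer cell lines were treated by pin tool with a single drug, or with a fixed anchor-drug dose together with five library-drug doses (not always all listed) in √10 steps. After 5 days, a combined fix-and-stain solution (final 0.05% Triton X-100, 1% formaldehyde, 1 ug/ml Hoechst) was added. Nuclei counted on 4× images gave relative viability as treated counts over vehicle counts, reported as the median of duplicate plates.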

Bemcentinib + Phenformin = compound: Nc1nc(Nc2ccc3c(c2)CC[C@@H](N2CCCC2)CC3)nn1-c1cc2c(nn1)-c1ccccc1CCC2 [Bemcentinib] + N=C(N)NC(=N)NCCc1ccccc1 [Phenformin] (partner 250 µM)
Summary of the method: as §1

[2] = compound: CC1=CC=C(C=C1)C(=O)CN2C3=C(CCCC3)SC2=N [Pifithrin_alpha] + CC(=O)Nc1cccc(-n2c(=O)n(C3CC3)c(=O)c3c(Nc4ccc(I)cc4F)n(C)c(=O)c(C)c32)c1 [Trametinib] (partner 0.02 µM)
Summary of the method: as §1

Axitinib + AZD7762 = compound: CNC(=O)c1ccccc1Sc1ccc2c(/C=C/c3ccccn3)n[nH]c2c1 [Axitinib] + NC(=O)Nc1cc(-c2cccc(F)c2)sc1C(=O)N[C@H]1CCCNC1 [AZD7762] (partner 0.2 µM)
Summary of the method: as §1

Cell Line: NCI-H650
- relative viability ([1]; first compound 0.04 µM): 0.337
- relative viability ([1]; first compound 0.1265 µM): 0.298
- relative viability ([1]; first compound 0.4 µM): 0.338
- relative viability ([1]; first compound 1.265 µM): 0.333
- relative viability ([1]; first compound 4 µM): 0.298
- relative viability (Bemcentinib + Phenformin; first compound 0.04 µM): 0.407
- relative viability (Bemcentinib + Phenformin; first compound 0.1265 µM): 0.487
- relative viability (Bemcentinib + Phenformin; first compound 0.4 µM): 0.484
- relative viability (Bemcentinib + Phenformin; first compound 1.265 µM): 0.429
- relative viability (Bemcentinib + Phenformin; first compound 4 µM): 0.415
- relative viability ([2]; first compound 3.162 µM): 0.947
- relative viability ([2]; first compound 10 µM): 0.978
- relative viability ([2]; first compound 31.62 µM): 0.785
- relative viability ([2]; first compound 100 µM): 0.985
- relative viability (Axitinib + AZD7762; first compound 0.005 µM): 1.08
- relative viability (Axitinib + AZD7762; first compound 0.01581 µM): 0.978
- relative viability (Axitinib + AZD7762; first compound 0.05 µM): 1.08
- relative viability (Axitinib + AZD7762; first compound 0.1581 µM): 1.11
- relative viability (Axitinib + AZD7762; first compound 0.5 µM): 0.862
